In US11014902B2, “MYC G-quadruplex stabilizing small molecules and their use” (The United States of America, as represented by the …, priority 2015, dated 2021):
pIC50: −log10 of the molar value. Like-named read-outs stand apart in the source and are kept apart here.

Assays:
L363 cells = test: L363 cell viability (MTS); format: cell-based, human; conditions: for viability at 10 µM: L-363, L363 cells; for pIC50: read-out: IC50
Experimental: Since two thirds of multiple myeloma cases involve deregulated c-MYC expression (Kuehl and Bergsagel, Blood 2012, 120, 2351; Shou, et al., Proc Natl Acad Sci USA 2000, 97, 228), we elected to evaluate the cell viability effects of Compound 1 in a multiple myeloma model. […] This suppression was maintained over 72 hours, which is notable given the characteristic rapid replenishment of the protein—a phenomenon that complicates targeting c-Myc at the protein level (FIG. 4C). This effect was maintained across a genetically diverse set of 4 multiple myeloma lines. We observed decreases in c-MYC translation in all lines tested, and this effect also correlated with decreases in viability (FIG. 4D).
Human multiple myeloma and Burkitt's Lymphoma cell lines L363, CA46, MM-1R, KMS-11, and MM-1S were cultured and authenticated as previously described (Simmons, et al., Molecular oncology 2014, 8, 261). All plasma derived cell lines were cultured in RPMI-1640 (2 mM L-glutamine, 10% fetal bovine serum (FBS), 100 U/ml penicillin, 100 μg/ml streptomycin: Gibco) and incubated at 37° C. with 5% CO2. Viability experiments were performed in quadruplicate on 96-well plates (Costar) at designated time and dose points. MTS reagent was then directly added, incubated at 37° C. for 90 min, and absorbance of MTS formazan was read at 500 nm on an Omega 640 spectrophotometer. Percentage cell viability was normalized to the absorbance of untreated (DMSO) wells. In the case of cells harvested for their protein or RNA, pellets were flash frozen and stored at −80° C. overnight prior to use. […]

[1] = tested on: c-MYC expression in L363 cells; test: Inhibition of c-MYC expression in L363 cells (Peggy); format: cell-based, human; conditions: for Peggy (% c-Myc expression compared to untreated): L363 cells; for Peggy (% c-Myc expression compared to untreated) / activity at 10 µM: at 10 μM
Description: FIG. 10 illustrates an exemplary procedure for generating analogs of Compound 1. The amine group of Compound 1 can be varied in reductive aminations to provide additional analogs. […] The table also provides an indication of an exemplary commercial source for the compounds, or (if applicable) an indication that the compound is new.

[2] = tested on: MYC expression in L363 cells; test: Gene expression analysis (Nanostring, qPCR), MYC; format: cell-based, human; conditions: L363 cells, 48 hours; 10 μM BRACO-19, 10 μM Compound 1, 7.5 μM Compound 23
Experimental: (§1) Gene expression analysis was performed on a panel of 770 cancer-associated genes in a multiplexed (nanostring) transcriptional assay. In addition to c-MYC itself, several c-Myc target genes were included in the panel, as were a number of other quadruplex-driven genes. […] Additionally, a third data set was collected comparing Compound 1 treatment to JQ-1 (a BET-bromodomain inhibitor) and quarfloxin (another quadruplex-binding small molecule).
(§2) The effects of Compound 1 on a number of known quadruplex-driven genes in the panel were examined further (FIG. 6). Expression levels of MYC, RB1, VEGFA, KRAS, and HIF1α, all of which are reported to be under the control of promoter G4s, and are expressed in L363 cells, were included in the panel of genes evaluated by Nanostring as discussed above. […] These changes in gene expression are in line with biophysical measurements of compound affinity. Corresponding data showing similar results is presented for Compounds 1 and 23 in FIGS. 14A and 14B. […] These observations further highlight the ability of Compound 1 and Compound 23 to specifically target the expression of c-Myc and related pathways.
(§3) The phenotype for c-MYC genetic knockdown in multiple myeloma was achieved through lentiviral transduction of shRNA for c-MYC, derived from the spinoculation of 293T cells and plasmids grown in STBL3 E. coli, and isolated with the Qiagen Plasmid Midi Kit. Aliquots of the plasmids were generously provided by Art Shaffer. RNA of treated myeloma cells at designated time points was isolated with the Qiagen RNeasy kit, and used with the nCounter Human Cancer Reference Kit (NanoString Technologies), surveying changes in expression for […] cancer-related human genes and 6 reference genes. Quantitative changes in expression were analyzed and grouped in the form of a heat map using the programming language, R. All other quantitative statistical packing was performed in GraphPad Prism.

[3] = tested on: RB1, VEGFA, KRAS, HIF1α, BCL2 expression in L363 cells; test: Gene expression analysis (Nanostring, qPCR), other G4-associated genes; format: cell-based, human; conditions: L363 cells, 48 hours; 10 μM BRACO-19, 10 μM Compound 1, 7.5 μM Compound 23
Experimental: as §1, §2, §3

[4] = tested on: c-MYC G4 DNA (biotin-labeled Pu22 G-quadruplex); test: Surface plasmon resonance (SPR); format: binding; conditions: same experiment as Compound 1
Experimental: In order to quantitatively assess the binding affinity of Compound 1 with the c-MYC G4, surface plasmon resonance (SPR) experiments (De Crescenzo, et al., Cell Mol Bioeng 2008, 1, 204) were performed using a biotinylated c-MYC G4 oligonucleotide. The oligonucleotide was immobilized to a streptavidin-coated chip, and binding was measured as a function of concentration. (FIG. 2). […] Furthermore, Compound 1 interacts with quadruplex DNA through a reversible binding interaction, and rapid, complete dissociation can be observed in the sensogram (FIG. 2C).
SPR experiments were performed with a Biacore T200 (GE Healthcare). […] The c-MYC DNA was then captured (FC2: 1245 Ru) on a Series S Sensor CM5 Chip (GE Healthcare) with amine-coupled Neutravidin (FC1: 4466 Ru, FC2: 5458 Ru). Single Cycle Kinetics (SCK) experiments were carried out with five injections of increasing concentration of analyte solution, which was prepared by a three-fold serial dilution of compound with buffer (10 mM Tris pH 7.5, 100 mM KCl, 3 mM EDTA) containing 3% DMSO. Binding analysis was conducted at a flow rate of 30 μL/min at 25° C. In each run, the association phase and the subsequent dissociation phase were monitored for 1 min and 10 min, respectively. Prior to each compound injection, three buffer injections were made. […]

[5] = Homo sapiens, L-363, viability of L363 cells
[6] = Homo sapiens, L-363, L363 cells, read-out: Peggy (% c-Myc expression compared to untreated)

Structure (SMILES)	viability at 10 µM (L363 cells; Homo sapiens)	pIC50 (L363 cells; [5])	activity at 10 µM [1, 6]	other results
Cc1oc2ccc(O)c(CNC3CC4CCC3C4)c2c1C(=O)Nc1ccc(C(F)(F)F)cc1 (stereo not shown) [Compound 33]	100%	–	–	–
Cc1oc2ccc(O)c(CN3CCC(C)CC3)c2c1C(=O)Nc1cccc(C(F)(F)F)c1 [Compound 12]	–	5.47	–	Peggy (% c-Myc expression compared to untreated) [1]: 43% (at 10 μM)
Cc1oc2ccc(O)c(CN3CC4CCC3C4)c2c1C(=O)Nc1ccc(C(F)(F)F)cc1 (stereo not shown) [Compound 32]	100%	–	–	–
Cc1oc2ccc(O)c(CN3CCCCCC3)c2c1C(=O)Nc1cccc(C(F)(F)F)c1 [Compound 13]	–	5.48	12%	–
Cc1oc2ccc(O)c(CN3CCC[C@H]3C)c2c1C(=O)Nc1ccc(C(F)(F)F)cc1 [Compound 28]	–	5.16	–	–
Cc1oc2ccc(O)c(CN3CCCC3)c2c1C(=O)Nc1ccc(C(F)(F)F)cc1 [Compound 25]	–	5.80	32%	–
COc1ccc(NC(=O)c2c(C)oc3ccc(O)c(CN4CCCCCC4)c23)cc1 [Compound 7]	–	5.14	81%	–
Cc1oc2ccc(O)c(CNC3CC4CCC3CC4)c2c1C(=O)Nc1ccc(C(F)(F)F)cc1 (stereo not shown) [Compound 35]	100%	–	–	–
Cc1ccc(NC(=O)c2c(C)oc3ccc(O)c(CN4CCCCCC4)c23)c(C)c1 [Compound 3]	–	5.20	52%	–
Cc1oc2ccc(O)c(CN3CCC3)c2c1C(=O)Nc1ccc(C(F)(F)F)cc1 [Compound 22]	100%	–	27%	–
CN(C)c1ccc(Nc2c3ccc(NC(=O)CCN4CCCC4)cc3nc3cc(NC(=O)CCN4CCCC4)ccc23)cc1 [BRACO-19, reference compound]	–	–	–	c-Myc expression (qPCR) [2]: reduced c-Myc expression; expression of other G-quadruplex containing genes (qPCR) [3]: minimally affecting expression of other G-quadruplex containing genes
Cc1oc2ccc(O)c(CN3CCCCC3)c2c1C(=O)Nc1cccc(C(F)(F)F)c1 [Compound 18]	–	5.28	6.5%	–
Cc1oc2ccc(O)c(CCN3CCCCCC3)c2c1C(=O)Nc1ccc(C(F)(F)F)cc1 [Compound 30]	–	4.42	–	–
Cc1oc2ccc(O)c(CN3CCC[C@@H]3C)c2c1C(=O)Nc1ccc(C(F)(F)F)cc1 [Compound 29]	–	5.35	–	–
Cc1ccccc1NC(=O)c1c(C)oc2ccc(O)c(CN3CCCCC3)c12 [Compound 5]	85%	–	89%	–
Cc1oc2ccc(O)c(CN3CCC(C)CC3)c2c1C(=O)Nc1ccc(C(F)(F)F)cc1 [Compound 26]	–	4.94	–	–
CCOC(=O)c1c(-c2ccccc2)oc2ccc(O)c(CN3CCCCCC3)c12 [Compound 10]	–	5.15	37%	–
CCOC(=O)c1c(C)n(C)c2ccc(O)c(CN3CCC(C)CC3)c12 [Compound 11]	89%	–	69%	–

Structure (SMILES)	viability at 10 µM (L363 cells; Homo sapiens)	pIC50 (L363 cells; [5])	activity at 10 µM [1, 6]	other results
Cc1ccc(NC(=O)c2c(C)oc3ccc(O)c(CN4CCN(C)CC4)c23)cc1 [Compound 2]	95%	–	72%	–
Cc1oc2ccc(O)c(CN3CCCC3)c2c1C(=O)Nc1cccc(C(F)(F)F)c1 [Compound 24]	–	5.11	–	activity at 6 µM ([1]; Homo sapiens, L-363, L363 cells, at 6 μM, read-out: Peggy (% c-Myc expression compared to untreated)): 63%
Cc1oc2ccc(O)c(CCCN3CCCCCC3)c2c1C(=O)Nc1ccc(C(F)(F)F)cc1 [Compound 31]	100%	–	–	–
Cc1oc2ccc(O)c(CN3CCC3)c2c1C(=O)Nc1cccc(C(F)(F)F)c1 [Compound 21]	–	< 4.92	74%	–
Cc1oc2ccc(O)c(CN3CCCCC3C)c2c1C(=O)Nc1cccc(C(F)(F)F)c1 (stereo not shown) [Compound 19]	–	5.42	0.56%	–
Cc1ccc(NC(=O)c2c(C)oc3ccc(O)cc23)cc1 [Compound 14]	84%	–	106%	–
Cc1ccc(NC(=O)c2c(C)oc3ccc(OS(=O)(=O)C(F)(F)F)c(CN4CCCCCC4)c23)cc1 [Compound 16]	70%	–	112%	–
Cc1oc2ccc(O)c(CN3CCCCCC3)c2c1C(=O)NC1CCCCC1 [Compound 8]	–	–	76%	–
Cc1oc2ccc(O)c(CN3CCCC[C@@H]3C)c2c1C(=O)Nc1ccc(C(F)(F)F)cc1 [Compound 27]	–	4.59	–	–
Cc1oc2ccc(O)c(CNC3CC4CCC3CC4)c2c1C(=O)Nc1ccc(C(F)(F)F)cc1 (stereo not shown) [Compound 34]	–	5.01	–	–
Cc1ccccc1NC(=O)c1c(C)oc2ccc(O)c(CN3CCCCCC3)c12 [Compound 4]	75%	–	73%	–
Cc1ccc(NC(=O)c2c(C)oc3cccc(CN4CCCCCC4)c23)cc1 [Compound 15]	53%	–	80%	–
CN1CCC[C@H]1CCNC(=O)c1cn2c3c(c(N4CCC(c5cnccn5)C4)c(F)cc3c1=O)Oc1cc3ccccc3cc1-2 (stereo partly shown) [Quarfloxin, reference compound]	–	–	–	binding (SPR) [4]: no evidence of binding
Cc1oc2ccc(O)c(CN3CCCCCC3)c2c1C(=O)Nc1cccc(Cl)c1C [Compound 6]	–	5.31	45%	–
Cc1oc2ccc(O)c(CN3CCC(C)CC3)c2c1C(=O)Nc1cccc(C(F)(F)F)c1 [Compound 20]	–	–	–	pIC50 (L363 cells; viability of L363 cells): 5.42; Peggy (% c-Myc expression compared to untreated) [1]: 1.4% (at 10 μM)
Cc1oc2ccc(O)c(CN3CCN(C)CC3)c2c1C(=O)Nc1cccc(C(F)(F)F)c1 [Compound 17]	–	< 4.92	68%	–
Cc1oc2ccc(O)c(CN3CCCC3)c2c1C(=O)Nc1ccccc1 [Compound 9]	100%	–	96%	–
